Test results reported in the supplement of paper PMC10307832.

Columns and labels:
Experiment in all cases: relative viability (nuclei count vs DMSO), 5 days (fraction); higher = more cells survive
[1] = compound: CCN1C(=O)C2=CC(=C(N=C2N(C1=O)C3CC3)N)C(=O)N
In short: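 Viability was defined as treated-well nuclei divided by vehicle-well nuclei, with the median taken over replicate plates. Cells from lung cancer lines sat overnight at 37 °C in 1536-well plates, received five √10-spaced library-drug doses by pinning on vehicle-anchored plates, and grew 5 days without medium change before one-step fixation, permeabilisation and Hoechst staining, 4× imaging and MetaXpress nuclear counts. Only plates with control CV under 25% and at least one doubling were kept.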

[2] = compound: CCN1C(=O)C2=CC(=C(N=C2N(C1=O)C3CC3)N)C(=O)N + CC1(C)CCC(c2ccc(Cl)cc2)=C(CN2CCN(c3ccc(C(=O)NS(=O)(=O)c4ccc(N[C@H](CCN5CCOCC5)CSc5ccccc5)c(S(=O)(=O)C(F)(F)F)c4)cc3)CC2)C1 [Navitoclax] (partner 0.5 µM)
In short: (§1)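 Relative viability equals treated-well nuclei counts divided by vehicle-well nuclei counts. Counts came from 4× images of lung cancer cell lines grown in 1536-well plates for 5 days after pin-tool dosing on the day after seeding. Dosing used one drug alone or a fixed anchor-drug dose plus five library-drug doses (not always all listed) in √10 steps, and values are medians of duplicate plates.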

[3] = compound: CCN1C(=O)C2=CC(=C(N=C2N(C1=O)C3CC3)N)C(=O)N + CS(=O)(=O)CCNCc1ccc(-c2ccc3ncnc(Nc4ccc(OCc5cccc(F)c5)c(Cl)c4)c3c2)o1 [Lapatinib] (partner 2 µM)
In short: as §1

[4] = compound: CCN1C(=O)C2=CC(=C(N=C2N(C1=O)C3CC3)N)C(=O)N + Cc1nc(Nc2ncc(C(=O)Nc3c(C)cccc3Cl)s2)cc(N2CCN(CCO)CC2)n1 [Dasatinib] (partner 0.075 µM)
In short: as §1

[5] = compound: CCN1C(=O)C2=CC(=C(N=C2N(C1=O)C3CC3)N)C(=O)N + O=C(CCCCCCC(=O)Nc1ccccc1)NO [Vorinostat] (partner 1 µM)
In short: as §1

Cell Line	relative viability ([1]; 0.253 µM)	relative viability ([1]; 2.53 µM)	relative viability ([1]; 8 µM)	relative viability ([2]; first compound 0.253 µM)	relative viability ([2]; first compound 0.8 µM)	relative viability ([2]; first compound 2.53 µM)	relative viability ([2]; first compound 8 µM)	relative viability ([3]; first compound 0.253 µM)	relative viability ([3]; first compound 0.8 µM)	relative viability ([3]; first compound 2.53 µM)	relative viability ([3]; first compound 8 µM)	relative viability ([4]; first compound 0.253 µM)	relative viability ([4]; first compound 0.8 µM)	relative viability ([4]; first compound 2.53 µM)	relative viability ([4]; first compound 8 µM)	relative viability ([5]; first compound 0.253 µM)	relative viability ([5]; first compound 2.53 µM)	relative viability ([5]; first compound 8 µM)	relative viability ([1]; 0.8 µM)	relative viability ([5]; first compound 0.8 µM)
EMC-BAC-2	1.39	1.14	1.07	1.2	1.17	1.18	1.32	0.937	0.849	0.859	0.888	0.35	0.305	0.328	0.318	0.992	0.782	0.67		
NCI-H727	0.98	0.976	0.828	0.463	0.51	0.484	0.596	0.925	0.69	0.814	0.857	0.352	0.323	0.333	0.422	1.27	1.26	1.07	0.892	1.11
LU99A	0.856	0.904	0.984	0.778	0.741	0.747	0.875	1.04	0.984	0.984	1.09	0.541	0.548	0.528	0.511	0.471	0.471	0.469	0.997	0.493
LK-2	0.979	1.03	1.04	0.934	0.937	0.976	1.06	0.89	0.878	0.995	1.09	0.312	0.294	0.303	0.221	0.286	0.307	0.302	0.981	0.377
NCI-H3122	1.01	0.993	0.956	1.06	1.02	1.02	1.01	1	1.05	0.951	1.03	0.772	0.803	0.81	0.788	0.912	0.968	0.988	1.01	0.975
NCI-H2347	0.98	1.08	1	0.816	0.871	0.801	0.749	0.94	1.01	0.985	0.937	0.294	0.307	0.161	0.323	0.634	0.623	0.639	1.04	0.462
NCI-H1563	0.975	0.955	0.929					0.808	0.91	0.95	0.885	0.467	0.41	0.46	0.422				1	
HCC-827	1.1	1.03	1.01	1	1.01	0.98	0.954	0.183	0.219	0.17	0.206	0.348	0.348	0.266	0.284	0.498	1	0.819	1.02	0.709
NCI-H1666	0.93	0.959	0.938	0.991	0.942	0.645	0.867	0.831	0.495	0.633	0.736		0.828	0.877	0.762	1.05	1	1.09	0.986	0.99
NCI-H358	1.05	0.924	0.954					0.424	0.417	0.526	0.612	0.157	0.148	0.189	0.17	0.788	0.628	0.863	0.913	0.625
201T	0.993	1.04	0.964	1.26	1.21	1.14	1.22	1.03	0.949	0.967	0.98	0.559	0.518	0.574	0.496	0.92	0.945	0.973	0.948	0.982
RERF-LC-KJ	1.02	0.909	0.959	1.21	0.947	0.767	0.923	0.897	0.882	0.909	0.86	0.76	0.82	0.676	0.795	0.678	0.807	0.838	0.929	0.737
NCI-H2405	1.09	1.06	0.982	1.13	0.882	1.01	1.07	1.21	1.16	1.08	1.01	0.196	0.185	0.227	0.174	1.21	1.26	1.14	1.02	
LXF-289	1.01	0.972	1.01	0.93	0.951	1.01	0.95	0.867	0.951	0.938	0.89	0.229	0.348	0.28	0.212	0.798	0.825	0.787	1.07	0.744
EKVX	1.01	0.959	0.913	0.929	0.897	0.952	0.989	0.23	0.25	0.222	0.196	0.496	0.479	0.461	0.469	0.881	0.716	0.594	0.955	0.589
A-427	1.02	1.03	1.03	0.994	0.965	0.95	0.98	1.06	0.963	1.05	1.01	0.729	0.825	0.744	0.779	0.923	0.842	0.852	0.991	0.926
IA-LM	0.952	0.877	0.825	0.815	0.583	0.768	0.791	0.877	0.902	0.88	0.747					0.983	0.905	1.1	0.75	0.873
ChaGo-K-1	1.12	0.973	0.924	1.05	0.782	1.11	0.958					0.6	0.664	0.614	0.527	0.793	0.72	0.748	0.949	0.764

Cell Line	relative viability ([1]; 0.253 µM)	relative viability ([1]; 2.53 µM)	relative viability ([1]; 8 µM)	relative viability ([2]; first compound 0.253 µM)	relative viability ([2]; first compound 0.8 µM)	relative viability ([2]; first compound 2.53 µM)	relative viability ([2]; first compound 8 µM)	relative viability ([3]; first compound 0.253 µM)	relative viability ([3]; first compound 0.8 µM)	relative viability ([3]; first compound 2.53 µM)	relative viability ([3]; first compound 8 µM)	relative viability ([4]; first compound 0.253 µM)	relative viability ([4]; first compound 0.8 µM)	relative viability ([4]; first compound 2.53 µM)	relative viability ([4]; first compound 8 µM)	relative viability ([5]; first compound 0.253 µM)	relative viability ([5]; first compound 2.53 µM)	relative viability ([5]; first compound 8 µM)	relative viability ([1]; 0.8 µM)	relative viability ([5]; first compound 0.8 µM)
NCI-H2342	1.04	0.907	0.948									0.27	0.294	0.349	0.323	0.719	0.817	0.645	0.821	0.812
SK-MES-1	1.01	0.976	0.997	1.03	1.28	1.22	1.27	0.478	0.485	0.451	0.492	0.409	0.393	0.393	0.448	1.04	1.04	1.08	0.972	1.01
LCLC-97TM1	0.936	0.977	0.879	0.431			0.53	1.01			1.05	0.793	0.948	0.855	0.883	0.711	0.634	0.773	0.792	0.752
NCI-H2170	0.983	1.02	0.925	0.576	0.544	0.608	0.595	0.253	0.257	0.263	0.255	0.518	0.549	0.596	0.522	0.881	0.869	0.78	0.928	0.791
NCI-H1993	0.972	0.919	0.878	0.994	0.875	0.797	0.757	0.782	0.817	0.815	0.823	0.511	0.49	0.477	0.497	0.0267	0.76	0.853	0.83	0.735
NCI-H460	0.976	0.967	0.972	1.17	1.08	1.07	1.14	1.04	1.07	0.902	1.02	0.5	0.541	0.592	0.452	0.788	0.625	0.688	0.989	0.74
NCI-H1975	1.01	0.957	0.892	1.31	1.06	1.19	1.02	0.841	0.844	0.868	0.91	0.381	0.341	0.356	0.268	0.733	0.697	0.757	0.917	0.772
NCI-H441	1.1	0.965	1.03	0.768	0.482	0.64	0.649					0.734	0.585	0.728	0.683	0.83	0.994	0.906	1.04	0.851
ABC-1	0.986	1	0.841					1.08	1.4	0.969	1.29	0.559	0.473	0.565	0.56	1.11	1.81	1.11	0.686	
NCI-H1792	0.763	1.08	0.832	0.648	0.533	0.834	0.564	0.993	0.859	1.1	0.769	0.763	0.826	0.879	0.567				0.786	
HCC-44	1.01	1.03	0.972	1.04	0.994	0.985	1.02	0.927	1.01	1.03	0.986					1.13	1.06	1.04	0.958	1.05
NCI-H1703	0.953	0.886	1.07	1.01	1.04	1.14	1.46	1.01	0.946	1.09	1.43								0.871	
NCI-H522	0.876	0.983	0.906									0.761	0.858	0.992	0.753	0.924	0.924	1.01	0.985	0.81
NCI-H650	0.955	0.962	0.849					1.03	0.883	1.07	0.872	0.434	0.349	0.424	0.373	0.565	0.408	0.421	0.916	0.313
SW 900	0.672	0.785	0.786									0.447	0.599	0.68	0.511	0.434	0.524	0.538	0.717	0.582
NCI-H661	1.03	0.972	0.961					0.526	0.631	0.428	0.5	0.911	0.911	0.898	0.895	0.758	0.748	0.803	0.991	0.788
LCLC-103H	1.02	0.924	0.999									0.453	0.426	0.457	0.445	0.798	0.761	0.817	0.928	0.806
